Results from US20240190880A1 (THE REGENTS OF THE UNIVERSITY OF MICHIGAN, priority 2021, published 2024).

molecular target: T1, ER (Homo sapiens, UniProt P03372); assay: ER degradation activity, in-cell western blot analysis in T47D cells; type: cell-based; settings: 16 hours, Table A does not say which cell line (T47D or MCF7), read-out: Potency (DC50)
T1 construct: host or cells: T47D and MCF7 human breast cancer cells
T1 sequence (P03372 1-595): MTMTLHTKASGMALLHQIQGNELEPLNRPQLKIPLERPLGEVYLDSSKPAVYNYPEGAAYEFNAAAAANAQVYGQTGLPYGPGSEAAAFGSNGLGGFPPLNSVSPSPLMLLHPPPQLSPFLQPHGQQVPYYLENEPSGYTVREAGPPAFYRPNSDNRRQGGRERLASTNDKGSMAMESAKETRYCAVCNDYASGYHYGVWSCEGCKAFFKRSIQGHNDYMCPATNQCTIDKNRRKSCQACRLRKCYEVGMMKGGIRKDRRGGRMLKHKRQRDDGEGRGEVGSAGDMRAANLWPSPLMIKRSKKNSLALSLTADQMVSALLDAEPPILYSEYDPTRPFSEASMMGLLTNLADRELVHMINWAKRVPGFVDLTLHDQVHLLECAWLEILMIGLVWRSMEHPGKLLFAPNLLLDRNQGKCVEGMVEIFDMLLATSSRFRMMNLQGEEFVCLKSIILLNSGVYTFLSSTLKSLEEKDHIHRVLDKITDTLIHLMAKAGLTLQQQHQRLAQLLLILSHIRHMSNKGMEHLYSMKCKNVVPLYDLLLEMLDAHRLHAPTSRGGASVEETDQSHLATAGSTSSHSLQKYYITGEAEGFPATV
How it was run: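 Cells were seeded overnight, exposed to diluted compounds for 16 hours, then stained with primary antibodies and with infrared-labelled secondary antibodies (1:1000, 1 h RT). Plates were scanned on a CLX reader, and ER levels were normalised to DMSO-treated wells.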

SMILES | DC50
O=C1CCC(N2C(=O)c3cc4c(cc3C2=O)CN(CC2CCN(CC3(F)CN(c5ccc([C@@H]6c7ccc(O)cc7CC[C@@H]6c6ccccc6)cc5)C3)CC2)C4)C(=O)N1 (stereo partly drawn) [E 286, 2-(2,6-dioxopiperidin-3-yl)-6-((1-((3-fluoro-1-(4-((1R,2S)-6-hydroxy-2-phenyl-1,2,3,4-tetrahydronaphthalen-1-yl)phenyl)azetidin-3-yl)methyl)piperidin-4-yl)methyl)-6,7-dihydropyrrolo[3,4-f]isoindole-1,3(2H,5H)-dione] | > 0.1 µM
O=C1CCC(N2C(=O)c3cc4c(cc3C2=O)CN(CC(=O)N2CCC3(C2)CN(c2ccc([C@@H]5c6ccc(O)cc6CC[C@@H]5c5ccccc5)cc2)C3)C4)C(=O)N1 (mixture of isomers) [E 17, rac-2-(2,6-dioxopiperidin-3-yl)-6-(2-(2-(4-((1R,2S)-6-hydroxy-2-phenyl-1,2,3,4-tetrahydronaphthalen-1-yl)phenyl)-2,6-diazaspiro[3.4]octan-6-yl)-2-oxoethyl)-6,7-dihydropyrrolo[3,4-f]isoindole-1,3(2H,5H)-dione] | 0.01 to 0.1 µM
CN(c1ccc([C@H]2c3ccc(O)cc3CC[C@H]2c2ccccc2)cc1)C1CN([C@H]2CC[C@H](C(=O)N3Cc4cc5c(cc4C3)C(=O)N(C3CCC(=O)NC3=O)C5=O)CC2)C1 (stereo partly drawn) [E 395, 2-(2,6-dioxopiperidin-3-yl)-6-((1R,4s)-4-(3-((4-((1S,2R)-6-hydroxy-2-phenyl-1,2,3,4-tetrahydronaphthalen-1-yl)phenyl)(methyl)amino)azetidin-1-yl)cyclohexane-1-carbonyl)-6,7-dihydropyrrolo[3,4-f]isoindole-1,3(2H,5H)-dione] | > 0.1 µM
C[C@@H]1Cc2c([nH]c3ccccc23)[C@@H](c2c(F)cc(N3CCC(C(=O)N4CCC(CN5Cc6cc7c(cc6C5)C(=O)N(C5CCC(=O)NC5=O)C7=O)CC4)CC3)cc2F)N1CC(F)F (stereo partly drawn) [E 113, 6-((1-(1-(4-((1R,3R)-2-(2,2-difluoroethyl)-3-methyl-2,3,4,9-tetrahydro-1H-pyrido[3,4-b]indol-1-yl)-3,5-difluorophenyl)piperidine-4-carbonyl)piperidin-4-yl)methyl)-2-(2,6-dioxopiperidin-3-yl)-6,7-dihydropyrrolo[3,4-f]isoindole-1,3(2H,5H)-dione] | 0.01 to 0.1 µM
C[C@@H]1Cc2c([nH]c3ccccc23)[C@@H](c2c(F)cc(N3CCC(N4CCC(C(=O)N5Cc6cc7c(cc6C5)C(=O)N(C5CCC(=O)NC5=O)C7=O)CC4)C3)cc2F)N1CC(F)F (stereo partly drawn) [E 110, 6-(1-(1-(4-((1R,3R)-2-(2,2-difluoroethyl)-3-methyl-2,3,4,9-tetrahydro-1H-pyrido[3,4-b]indol-1-yl)-3,5-difluorophenyl)pyrrolidin-3-yl)piperidine-4-carbonyl)-2-(2,6-dioxopiperidin-3-yl)-6,7-dihydropyrrolo[3,4-f]isoindole-1,3(2H,5H)-dione] | > 0.1 µM
O=C1CCC(N2C(=O)c3cc4c(cc3C2=O)CN(C(=O)[C@H]2CC[C@H](N3CC(Oc5ccc([C@H]6c7ccc(O)cc7CC[C@H]6c6ccccc6)cc5)C3)CC2)C4)C(=O)N1 (stereo partly drawn) [E 388, 2-(2,6-dioxopiperidin-3-yl)-6-((1S,4r)-4-(3-(4-((1S,2R)-6-hydroxy-2-phenyl-1,2,3,4-tetrahydronaphthalen-1-yl)phenoxy)azetidin-1-yl)cyclohexane-1-carbonyl)-6,7-dihydropyrrolo[3,4-f]isoindole-1,3(2H,5H)-dione] | 0.01 to 0.1 µM
CN(C1CN(c2ccc([C@@H]3c4ccc(O)cc4CC[C@@H]3c3ccccc3)cc2)C1)[C@H]1CC[C@@H](C(=O)N2Cc3cc4c(cc3C2)C(=O)N(C2CCC(=O)NC2=O)C4)CC1 (single isomer, unassigned) [E 356] | > 0.1 µM
O=C1CCC(N2C(=O)c3cc4c(cc3C2=O)CN(C2CCN(C(=O)C3(F)CCN(c5ccc([C@@H]6c7ccc(O)cc7CC[C@@H]6c6ccccc6)cc5)CC3)CC2)C4)C(=O)N1 (stereo partly drawn) [E 241, 2-(2,6-dioxopiperidin-3-yl)-6-(1-(4-fluoro-1-(4-((1R,2S)-6-hydroxy-2-phenyl-1,2,3,4-tetrahydronaphthalen-1-yl)phenyl)piperidine-4-carbonyl)piperidin-4-yl)-6,7-dihydropyrrolo[3,4-f]isoindole-1,3(2H,5H)-dione] | > 0.1 µM
O=C1CCC(N2C(=O)c3cc4c(cc3C2=O)CN(C(=O)[C@H]2CC[C@@H](CN3CC(Nc5ccc([C@@H]6c7ccc(O)cc7CC[C@@H]6c6ccccc6)cc5)C3)CC2)C4)C(=O)N1 (stereo partly drawn) [E 364, 2-(2,6-dioxopiperidin-3-yl)-6-((1S,4s)-4-((3-((4-((1R,2S)-6-hydroxy-2-phenyl-1,2,3,4-tetrahydronaphthalen-1-yl)phenyl)amino)azetidin-1-yl)methyl)cyclohexane-1-carbonyl)-6,7-dihydropyrrolo[3,4-f]isoindole-1,3(2H,5H)-dione] | 0.01 to 0.1 µM

Other lines, results leading:

DC50 | SMILES
< 0.01 µM | C[C@@H]1Cc2c([nH]c3ccccc23)[C@@H](c2c(F)cc(N3CC[C@@H](CN4CCC(C(=O)N5Cc6cc7c(cc6C5)C(=O)N(C5CCC(=O)NC5=O)C7=O)CC4)C3)cc2F)N1CC(F)F (stereo partly drawn) [E 91, 6-(1-(((S)-1-(4-((1R,3R)-2-(2,2-difluoroethyl)-3-methyl-2,3,4,9-tetrahydro-1H-pyrido[3,4-b]indol-1-yl)-3,5-difluorophenyl)pyrrolidin-3-yl)methyl)piperidine-4-carbonyl)-2-(2,6-dioxopiperidin-3-yl)-6,7-dihydropyrrolo[3,4-f]isoindole-1,3(2H,5H)-dione]
0.01 to 0.1 µM | C[C@@H]1Cc2c([nH]c3ccccc23)[C@@H](c2ccc(C3CCC(C(=O)N4CCC(N5Cc6cc7c(cc6C5)C(=O)N(C5CCC(=O)NC5=O)C7=O)CC4)CC3)cn2)N1CC(F)F (stereo partly drawn) [E 313, 6-(1-(4-(6-((1S,3R)-2-(2,2-difluoroethyl)-3-methyl-2,3,4,9-tetrahydro-1H-pyrido[3,4-b]indol-1-yl)pyridin-3-yl)cyclohexane-1-carbonyl)piperidin-4-yl)-2-(2,6-dioxopiperidin-3-yl)-6,7-dihydropyrrolo[3,4-f]isoindole-1,3(2H,5H)-dione]
< 0.01 µM | C[C@@H]1Cc2c([nH]c3ccccc23)[C@@H](c2c(F)cc(N3CCC4(CC3)CC(C(=O)N3CCC(N5Cc6cc7c(cc6C5)C(=O)N(C5CCC(=O)NC5=O)C7)CC3)C4)cc2F)N1CC(F)F (stereo partly drawn) [E 101, 3-(6-(1-(7-(4-((1R,3R)-2-(2,2-difluoroethyl)-3-methyl-2,3,4,9-tetrahydro-1H-pyrido[3,4-b]indol-1-yl)-3,5-difluorophenyl)-7-azaspiro[3.5]nonane-2-carbonyl)piperidin-4-yl)-1-oxo-3,5,6,7-tetrahydropyrrolo[3,4-f]isoindol-2(1H)-yl)piperidine-2,6-dione]
> 0.1 µM | C[C@@H]1Cc2c([nH]c3ccccc23)[C@@H](c2c(F)cc(C3CCC(CN4CCC(N5Cc6cc7c(cc6C5)C(=O)N(C5CCC(=O)NC5=O)C7=O)CC4)CC3)cc2F)N1CC(F)F (stereo partly drawn) [E 282, 6-(1-((4-(4-((1R,3R)-2-(2,2-difluoroethyl)-3-methyl-2,3,4,9-tetrahydro-1H-pyrido[3,4-b]indol-1-yl)-3,5-difluorophenyl)cyclohexyl)methyl)piperidin-4-yl)-2-(2,6-dioxopiperidin-3-yl)-6,7-dihydropyrrolo[3,4-f]isoindole-1,3(2H,5H)-dione]

same assay, conditions: compounds 16 hours, Table A does not say whether T47D or MCF7, read-out: Potency (DC50)

DC50 | SMILES
0.01 to 0.1 µM | COc1cc([C@H]2CC[C@H](C(=O)N3CCC(N4Cc5cc6c(cc5C4)C(=O)N(C4CCC(=O)NC4=O)C6=O)CC3)CC2)ccc1[C@@H]1c2[nH]c3ccccc3c2C[C@@H](C)N1CC(F)F (stereo partly drawn) [E 403, 6-(1-((1R,4r)-4-(4-((1R,3R)-2-(2,2-difluoroethyl)-3-methyl-2,3,4,9-tetrahydro-1H-pyrido[3,4-b]indol-1-yl)-3-methoxyphenyl)cyclohexane-1-carbonyl)piperidin-4-yl)-2-(2,6-dioxopiperidin-3-yl)-6,7-dihydropyrrolo[3,4-f]isoindole-1,3(2H,5H)-dione]
> 0.1 µM | COc1cc([C@H]2CC[C@H](C(=O)N3CCC(N4Cc5cc6c(cc5C4)C(=O)N(C4CCC(=O)NC4=O)C6=O)CC3)CC2)ncc1[C@@H]1c2[nH]c3ccccc3c2C[C@@H](C)N1CC(F)F (stereo partly drawn) [E 397, 6-(1-((1R,4r)-4-(5-((1R,3R)-2-(2,2-difluoroethyl)-3-methyl-2,3,4,9-tetrahydro-1H-pyrido[3,4-b]indol-1-yl)-4-methoxypyridin-2-yl)cyclohexane-1-carbonyl)piperidin-4-yl)-2-(2,6-dioxopiperidin-3-yl)-6,7-dihydropyrrolo[3,4-f]isoindole-1,3(2H,5H)-dione]
0.01 to 0.1 µM | C[C@@H]1Cc2cc(O)ccc2[C@@H](c2c(F)cc(NC3CC4(CCN(C(=O)CN5Cc6cc7c(cc6C5)C(=O)N(C5CCC(=O)NC5=O)C7=O)CC4)C3)cc2F)N1CC(F)F (stereo partly drawn) [E 451, 6-(2-(2-((4-((1S,3R)-2-(2,2-difluoroethyl)-6-hydroxy-3-methyl-1,2,3,4-tetrahydroisoquinolin-1-yl)-3,5-difluorophenyl)amino)-7-azaspiro[3.5]nonan-7-yl)-2-oxoethyl)-2-(2,6-dioxopiperidin-3-yl)-6,7-dihydropyrrolo[3,4-f]isoindole-1,3(2H,5H)-dione]
